The data set in a line: Stabilization of Vitamin C: spectral absorption at 265 nm after exposure to air with storage in the dark. The settings on record: Vitamin C combined with Nanotope AO7 (encapsulated AO7 1.00%, ascorbic acid 1.00% in water phase), phosphate buffer pH 6, exposure to air, 20° C. Format: physicochemical. Here is the method: Aqueous solution of Vitamin C (concentration=40.5 mM), buffered at pH=6 (Phosphate buffer, previously evacuated and then flushed with Nitrogen to remove as much Oxygen as possible). a) Standalone Vitamin C: 0.7 mM b) Combination Vitamin C/Nanotope AO7: [table] Absorption measurement with Perkin Elmer Lambda 16; cuvette length d=0.1 cm Irradiation chamber Atlas CPS+; temperature of measurement=35° C. Spectral absorption of Vitamin C (Ascorbic Acid) at its maximum wavelength (Imax=265 nm); maximum extinction at time after exposure to air with storage in the dark. Experiments were done at 20° C.

Take `O=C1O[C@H]([C@@H](O)CO)C(O)=C1O` [Vitamin C, ascorbic acid]: the “protection of Vitamin C (maximum extinction at 265 nm)” value is “efficiently protected”.

The record behind these values is US20090258041A1, “Protection of Oxidizable Agents” (priority 2005, published 2009).
